In the NIST ThermoML archive (doi:10.1021/acs.jced.5b00654):
Where “and” joins values, the source holds several entries; their conditions need not be identical. Identical values can stand only once. Numbers after ± are expanded uncertainties.

Details: Fluid (supercritical or subcritical phases); for mass density: Buoyancy - hydrostatic balance with magnetic suspension - one sinker; for viscosity: Vibrating wire viscometry

CCCC [butane]
Details	mass density	viscosity
298.11 K, 162.81 kPa	4.0157 ± 0.019 kg/m3	0.007353 ± 0.00083 mPa·s
298.11 K, 162.82 kPa	4.016 ± 0.019 kg/m3	0.007354 ± 0.00083 mPa·s
298.12 K, 142.16 kPa	3.4823 ± 0.018 kg/m3	0.007359 ± 0.00083 mPa·s
298.12 K, 221.35 kPa	5.5716 ± 0.022 kg/m3	0.007333 ± 0.00083 mPa·s
298.12 K, 221.39 kPa	5.5728 ± 0.022 kg/m3	0.007334 ± 0.00083 mPa·s
298.13 K, 123.43 kPa	3.0049 ± 0.018 kg/m3	0.007365 ± 0.00083 mPa·s
298.13 K, 123.44 kPa	3.0052 ± 0.018 kg/m3	0.007363 ± 0.00083 mPa·s
298.13 K, 142.17 kPa	3.4826 ± 0.019 kg/m3	0.007359 ± 0.00083 mPa·s
298.14 K, 61.79 kPa	1.4756 ± 0.016 kg/m3	0.007376 ± 0.00083 mPa·s
298.14 K, 61.8 kPa	1.4758 ± 0.016 kg/m3	0.007378 ± 0.00083 mPa·s
298.14 K, 82.37 kPa	1.9794 ± 0.017 kg/m3	0.007375 ± 0.00083 mPa·s
298.14 K, 82.38 kPa	1.9797 ± 0.017 kg/m3	0.007372 ± 0.00083 mPa·s
298.14 K, 102.9 kPa	2.4887 ± 0.017 kg/m3	0.007369 ± 0.00083 mPa·s
298.14 K, 102.91 kPa	2.4889 ± 0.017 kg/m3	0.00737 ± 0.00083 mPa·s
298.14 K, 175.29 kPa	4.3414 ± 0.02 kg/m3 and 4.3415 ± 0.02 kg/m3	0.007347 ± 0.00083 mPa·s and 0.007346 ± 0.00083 mPa·s
298.14 K, 196.75 kPa	4.9091 ± 0.021 kg/m3	0.007342 ± 0.00083 mPa·s
298.14 K, 196.77 kPa	4.9096 ± 0.021 kg/m3	0.007341 ± 0.00083 mPa·s
298.15 K, 57.18 kPa	1.3635 ± 0.016 kg/m3 and 1.3636 ± 0.016 kg/m3	0.007377 ± 0.00083 mPa·s and 0.007378 ± 0.00083 mPa·s
322.98 K, 450.39 kPa	11.024 ± 0.031 kg/m3	0.007953 ± 0.00084 mPa·s
323 K, 450.69 kPa	11.032 ± 0.031 kg/m3	0.007951 ± 0.00084 mPa·s
323.01 K, 450.89 kPa	11.037 ± 0.031 kg/m3	0.007953 ± 0.00084 mPa·s
323.06 K, 392.1 kPa	9.426 ± 0.029 kg/m3	0.007958 ± 0.00084 mPa·s
323.08 K, 392.5 kPa	9.4391 ± 0.028 kg/m3	0.007954 ± 0.00084 mPa·s
323.09 K, 392.9 kPa	9.4492 ± 0.029 kg/m3	0.00796 ± 0.00084 mPa·s
323.11 K, 380.74 kPa	9.1236 ± 0.028 kg/m3	0.007958 ± 0.00084 mPa·s
323.11 K, 380.78 kPa	9.1236 ± 0.028 kg/m3	0.007958 ± 0.00084 mPa·s
323.12 K, 330.12 kPa	7.8092 ± 0.025 kg/m3	0.007967 ± 0.00084 mPa·s
323.12 K, 330.36 kPa	7.8164 ± 0.025 kg/m3	0.007967 ± 0.00084 mPa·s
323.12 K, 380.76 kPa	9.1272 ± 0.028 kg/m3	0.007958 ± 0.00084 mPa·s
323.13 K, 261.18 kPa	6.0223 ± 0.022 kg/m3	0.00797 ± 0.00084 mPa·s
323.13 K, 261.21 kPa	6.023 ± 0.022 kg/m3	0.007973 ± 0.00084 mPa·s
323.13 K, 301.54 kPa	7.0807 ± 0.024 kg/m3	0.00797 ± 0.00084 mPa·s
323.13 K, 303.39 kPa	7.1241 ± 0.024 kg/m3	0.007967 ± 0.00084 mPa·s
323.13 K, 305.32 kPa	7.1762 ± 0.024 kg/m3	0.00797 ± 0.00084 mPa·s
323.13 K, 330.63 kPa	7.8215 ± 0.025 kg/m3	0.007965 ± 0.00084 mPa·s
323.14 K, 58.2 kPa	1.2744 ± 0.016 kg/m3 and 1.2766 ± 0.016 kg/m3	0.007994 ± 0.00084 mPa·s and 0.007988 ± 0.00084 mPa·s
323.14 K, 58.21 kPa	1.2766 ± 0.016 kg/m3	0.00799 ± 0.00084 mPa·s
323.14 K, 66.38 kPa	1.4575 ± 0.016 kg/m3 and 1.4567 ± 0.016 kg/m3	0.007991 ± 0.00084 mPa·s and 0.007994 ± 0.00084 mPa·s
323.14 K, 66.39 kPa	1.4553 ± 0.016 kg/m3	0.007994 ± 0.00084 mPa·s
323.14 K, 90.51 kPa	1.9979 ± 0.017 kg/m3	0.007987 ± 0.00084 mPa·s
323.14 K, 90.52 kPa	1.9986 ± 0.017 kg/m3	0.00799 ± 0.00084 mPa·s
323.14 K, 112.93 kPa	2.5057 ± 0.017 kg/m3	0.00799 ± 0.00084 mPa·s
323.14 K, 112.94 kPa	2.5035 ± 0.017 kg/m3	0.007991 ± 0.00084 mPa·s
323.14 K, 112.96 kPa	2.5057 ± 0.017 kg/m3	0.00799 ± 0.00084 mPa·s
323.14 K, 132.43 kPa	2.9506 ± 0.018 kg/m3	0.007991 ± 0.00084 mPa·s
323.14 K, 132.44 kPa	2.9492 ± 0.018 kg/m3	0.007989 ± 0.00084 mPa·s
323.14 K, 132.46 kPa	2.9499 ± 0.018 kg/m3	0.007989 ± 0.00084 mPa·s
323.14 K, 184.24 kPa	4.1645 ± 0.02 kg/m3	0.007979 ± 0.00084 mPa·s
323.14 K, 215.63 kPa	4.9096 ± 0.021 kg/m3	0.007976 ± 0.00084 mPa·s
323.14 K, 215.65 kPa	4.9111 ± 0.021 kg/m3	0.007976 ± 0.00084 mPa·s
323.14 K, 215.87 kPa	4.9169 ± 0.021 kg/m3	0.007974 ± 0.00084 mPa·s
323.14 K, 261.28 kPa	6.0252 ± 0.023 kg/m3	0.007968 ± 0.00084 mPa·s
323.15 K, 150.03 kPa	3.3622 ± 0.018 kg/m3	0.007982 ± 0.00084 mPa·s
323.15 K, 150.04 kPa	3.3622 ± 0.018 kg/m3	0.007982 ± 0.00084 mPa·s
323.15 K, 184.35 kPa	4.1652 ± 0.02 kg/m3	0.00798 ± 0.00084 mPa·s
323.15 K, 184.36 kPa	4.1667 ± 0.02 kg/m3	0.007979 ± 0.00084 mPa·s
348.03 K, 813.85 kPa	19.576 ± 0.049 kg/m3	0.008652 ± 0.00084 mPa·s
348.03 K, 813.99 kPa	19.581 ± 0.049 kg/m3	0.008648 ± 0.00084 mPa·s
348.03 K, 814.13 kPa	19.586 ± 0.049 kg/m3	0.008649 ± 0.00084 mPa·s
348.12 K, 677.52 kPa	15.682 ± 0.041 kg/m3	0.008631 ± 0.00084 mPa·s
348.12 K, 677.82 kPa	15.691 ± 0.041 kg/m3	0.008631 ± 0.00084 mPa·s
348.13 K, 760.25 kPa	17.999 ± 0.046 kg/m3	0.00864 ± 0.00084 mPa·s
348.13 K, 760.34 kPa	18.002 ± 0.046 kg/m3	0.008637 ± 0.00084 mPa·s
348.14 K, 93.82 kPa	1.9124 ± 0.016 kg/m3	0.008599 ± 0.00084 mPa·s
348.14 K, 93.83 kPa	1.9131 ± 0.016 kg/m3	0.008597 ± 0.00084 mPa·s
348.14 K, 293.19 kPa	6.2173 ± 0.023 kg/m3	0.008602 ± 0.00084 mPa·s
348.14 K, 293.73 kPa	6.2296 ± 0.023 kg/m3	0.008602 ± 0.00084 mPa·s
348.14 K, 618.24 kPa	14.097 ± 0.037 kg/m3	0.008621 ± 0.00084 mPa·s
348.14 K, 618.34 kPa	14.099 ± 0.037 kg/m3	0.008628 ± 0.00084 mPa·s
348.15 K, 63.28 kPa	1.2845 ± 0.016 kg/m3	0.008588 ± 0.00084 mPa·s
348.15 K, 63.3 kPa	1.286 ± 0.016 kg/m3	–
